Laboratory results as given in US6737383B1, “Herbicidal oxadiazolidines” (priority 1999, dated 2004).

Assays:
cocklebur = experiment: Test B pre/postemergence cocklebur; format: in vivo, Xanthium strumarium
How it was run: (§1)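 Herbicidal effect was estimated by eye on a ten-point control scale after plants spent twelve to sixteen days in a greenhouse following soil or foliar treatment. Foliar sprays targeted plants at one to four leaves; all doses were formulated in a non-phytotoxic solvent with surfactant.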

purple nutsedge = experiment: Test B pre/postemergence purple nutsedge; format: in vivo, Cyperus rotundus
How it was run: as §1

surinam grass = experiment: Test B pre/postemergence surinam grass; format: in vivo, Brachiaria decumbens
How it was run: as §1

wheat = experiment: Test B pre/postemergence wheat; format: in vivo, Triticum aestivum
How it was run: as §1

velvetleaf = experiment: Test B pre/postemergence velvetleaf; format: in vivo, Abutilon theophrasti
How it was run: as §1

bedstraw = experiment: Test B pre/postemergence bedstraw; format: in vivo, Galium aparine
How it was run: as §1

sugar beet = experiment: Test B pre/postemergence sugar beet; format: in vivo, Beta vulgaris
How it was run: as §1

blackgrass = experiment: Test B pre/postemergence blackgrass; format: in vivo, Alopecurus myosuroides
How it was run: as §1

rape = experiment: Test B pre/postemergence rape; format: in vivo, Brassica napus
How it was run: as §1

morningglory = experiment: Test B pre/postemergence morningglory; format: in vivo, Ipomoea hederacea
How it was run: as §1

corn = experiment: Test B pre/postemergence corn; format: in vivo, Zea mays
How it was run: as §1

giant foxtail = experiment: Test B pre/postemergence giant foxtail; format: in vivo, Setaria faberii
How it was run: as §1

soybean = experiment: Test B pre/postemergence soybean; format: in vivo, Glycine max
How it was run: as §1

crabgrass = experiment: Test B pre/postemergence crabgrass; format: in vivo, Digitaria sanguinalis
How it was run: as §1

wild oat = experiment: Test B pre/postemergence wild oat; format: in vivo, Avena fatua
How it was run: as §1

pigweed = experiment: Test B pre/postemergence pigweed; format: in vivo, Amaranthus retroflexus
How it was run: as §1

[1] = Postemergence, Rate 62 g/ha, scale of 0 to 10, 0 is no effect, 10 is complete control
[2] = Postemergence, Rate 125 g/ha, scale 0 to 10, 0 is no effect, 10 is complete control
[3] = Postemergence, Rate 250 g/ha, scale 0 to 10
[4] = Postemergence, Rate 500 g/ha, scale 0 to 10, 0 is no effect, 10 is complete control
[5] = Preemergence, Rate 62 g/ha, scale of 0 to 10 where 0 is no effect and 10 is complete control
[6] = Preemergence, Rate 125 g/ha, scale 0 to 10, 0 is no effect, 10 is complete control
[7] = Preemergence, Rate 250 g/ha, scale 0 to 10, 0 is no effect, 10 is complete control
[8] = Preemergence, Rate 500 g/ha, scale of 0 to 10 where 0 is no effect and 10 is complete control
[9] = Preemergence, Rate 500 g/ha, scale 0 to 10, 0 is no effect, 10 is complete control

CC(=O)OCCCCn1c(=O)on(C(=O)N(c2ccc(F)cc2F)C(C)C)c1=O [Compound 506]
3: Crabgrass plant response rating (crabgrass; [2])
2: Cocklebur plant response rating (cocklebur; [3]) | Wheat plant response rating (wheat; [8]) | Sugarbeets plant response rating (sugar beet; [1]) | Giant foxtail plant response rating (giant foxtail; [1]) | Soybean plant response rating (soybean; [1]) | Soybean plant response rating (soybean; [2]) | Plant response rating, Wild oats (wild oat; [4]) | Wild oats plant response rating (wild oat; [6]) | Plant response rating, Redroot pigweed (pigweed; [5])
0: Cocklebur plant response rating (cocklebur; [1]) | Cocklebur plant response rating (cocklebur; [2]) | Plant response rating, Cocklebur (cocklebur; [5]) | Cocklebur plant response rating (cocklebur; [6]) | Cocklebur plant response rating (cocklebur; [7]) | Cocklebur plant response rating (cocklebur; [8]) | Nutsedge plant response rating (purple nutsedge; [1]) | Nutsedge plant response rating (purple nutsedge; [2]) | Plant response rating, Nutsedge (purple nutsedge; [4]) | Plant response rating, Nutsedge (purple nutsedge; [5]) | Nutsedge plant response rating (purple nutsedge; [6]) | B. signalgrass plant response rating (surinam grass; [1]) | B. signalgrass plant response rating (surinam grass; [2]) | B. signalgrass plant response rating (surinam grass; Postemergence, Rate 250 g/ha, scale 0 to 10, 0 no effect, 10 complete control) | Plant response rating, B. signalgrass (surinam grass; [4]) | Plant response rating, B. signalgrass (surinam grass; [5]) | B. signalgrass plant response rating (surinam grass; [6]) | B. signalgrass plant response rating (surinam grass; [7]) | B. signalgrass plant response rating (surinam grass; [9]) | Wheat plant response rating (wheat; [1]) | Wheat plant response rating (wheat; [2]) | Plant response rating, Wheat (wheat; [5]) | Wheat plant response rating (wheat; [6]) | Velvetleaf plant response rating (velvetleaf; [1]) | Velvetleaf plant response rating (velvetleaf; [2]) | Plant response rating, Velvetleaf (velvetleaf; [5]) | Velvetleaf plant response rating (velvetleaf; [6]) | Velvetleaf plant response rating (velvetleaf; [8]) | Plant response rating, Bedstraw (bedstraw; [5]) | Bedstraw plant response rating (bedstraw; [6]) | Bedstraw plant response rating (bedstraw; [7]) | Plant response rating, Sugarbeets (sugar beet; [5]) | Sugarbeets plant response rating (sugar beet; [6]) | Sugarbeets plant response rating (sugar beet; [8]) | Blackgrass plant response rating (blackgrass; [1]) | Blackgrass plant response rating (blackgrass; [2]) | Plant response rating, Blackgrass (blackgrass; [5]) | Blackgrass plant response rating (blackgrass; [6]) | Rape plant response rating (rape; [1]) | Rape plant response rating (rape; [2]) | Plant response rating, Rape (rape; [5]) | Rape plant response rating (rape; [6]) | Morningglory plant response rating (morningglory; [1]) | Morningglory plant response rating (morningglory; [2]) | Plant response rating, Morningglory (morningglory; [5]) | Morningglory plant response rating (morningglory; [6]) | Morningglory plant response rating (morningglory; [8]) | Corn plant response rating (corn; [1]) | Corn plant response rating (corn; [2]) | Corn plant response rating (corn; [3]) | Plant response rating, Corn (corn; [4]) | Plant response rating, Corn (corn; [5]) | Corn plant response rating (corn; [6]) | Corn plant response rating (corn; [8]) | Plant response rating, Giant foxtail (giant foxtail; [5]) | Plant response rating, Soybean (soybean; [5]) | Soybean plant response rating (soybean; [6]) | Soybean plant response rating (soybean; [8]) | Crabgrass plant response rating (crabgrass; [1]) | Plant response rating, Crabgrass (crabgrass; [5]) | Crabgrass plant response rating (crabgrass; [6]) | Wild oats plant response rating (wild oat; [1]) | Wild oats plant response rating (wild oat; [2]) | Plant response rating, Wild oats (wild oat; [5]) | Redroot pigweed plant response rating (pigweed; [1]) | Redroot pigweed plant response rating (pigweed; [2]) | Plant response rating, Redroot pigweed (pigweed; [4])
4: Plant response rating, Wheat (wheat; [4]) | Plant response rating, Velvetleaf (velvetleaf; [4]) | Bedstraw plant response rating (bedstraw; [9]) | Blackgrass plant response rating (blackgrass; [7]) | Plant response rating, Soybean (soybean; [4])
6: Plant response rating, Cocklebur (cocklebur; [4]) | Sugarbeets plant response rating (sugar beet; [2]) | Plant response rating, Blackgrass (blackgrass; [4]) | Crabgrass plant response rating (crabgrass; [8])
5: Blackgrass plant response rating (blackgrass; [3]) | Plant response rating, Morningglory (morningglory; [4]) | Giant foxtail plant response rating (giant foxtail; [6])
10: Nutsedge plant response rating (purple nutsedge; [8]) | Redroot pigweed plant response rating (pigweed; [8])
9: Plant response rating, Bedstraw (bedstraw; [4]) | Blackgrass plant response rating (blackgrass; [8])
8: Rape plant response rating (rape; [8]) | Plant response rating, Giant foxtail (giant foxtail; [4]) | Giant foxtail plant response rating (giant foxtail; [8]) | Plant response rating, Crabgrass (crabgrass; [4]) | Redroot pigweed plant response rating (pigweed; [6])
7: Plant response rating, Sugarbeets (sugar beet; [4]) | Plant response rating, Rape (rape; [4]) | Crabgrass plant response rating (crabgrass; [3]) | Wild oats plant response rating (wild oat; [8])
